Test system: Staphylococcus aureus organisms
Experiment: In vitro tests of susceptibility to NO
Format: cell-based

## [N]=O [NO, Nitric oxide]
  susceptibility to NO: susceptible
